The target in the assay is T1, androgen receptor (Homo sapiens, UniProt P10275, T878A).
T1 construct: host or cells: LNCaP·FGC cells
T1 sequence (P10275 1-920 T878A): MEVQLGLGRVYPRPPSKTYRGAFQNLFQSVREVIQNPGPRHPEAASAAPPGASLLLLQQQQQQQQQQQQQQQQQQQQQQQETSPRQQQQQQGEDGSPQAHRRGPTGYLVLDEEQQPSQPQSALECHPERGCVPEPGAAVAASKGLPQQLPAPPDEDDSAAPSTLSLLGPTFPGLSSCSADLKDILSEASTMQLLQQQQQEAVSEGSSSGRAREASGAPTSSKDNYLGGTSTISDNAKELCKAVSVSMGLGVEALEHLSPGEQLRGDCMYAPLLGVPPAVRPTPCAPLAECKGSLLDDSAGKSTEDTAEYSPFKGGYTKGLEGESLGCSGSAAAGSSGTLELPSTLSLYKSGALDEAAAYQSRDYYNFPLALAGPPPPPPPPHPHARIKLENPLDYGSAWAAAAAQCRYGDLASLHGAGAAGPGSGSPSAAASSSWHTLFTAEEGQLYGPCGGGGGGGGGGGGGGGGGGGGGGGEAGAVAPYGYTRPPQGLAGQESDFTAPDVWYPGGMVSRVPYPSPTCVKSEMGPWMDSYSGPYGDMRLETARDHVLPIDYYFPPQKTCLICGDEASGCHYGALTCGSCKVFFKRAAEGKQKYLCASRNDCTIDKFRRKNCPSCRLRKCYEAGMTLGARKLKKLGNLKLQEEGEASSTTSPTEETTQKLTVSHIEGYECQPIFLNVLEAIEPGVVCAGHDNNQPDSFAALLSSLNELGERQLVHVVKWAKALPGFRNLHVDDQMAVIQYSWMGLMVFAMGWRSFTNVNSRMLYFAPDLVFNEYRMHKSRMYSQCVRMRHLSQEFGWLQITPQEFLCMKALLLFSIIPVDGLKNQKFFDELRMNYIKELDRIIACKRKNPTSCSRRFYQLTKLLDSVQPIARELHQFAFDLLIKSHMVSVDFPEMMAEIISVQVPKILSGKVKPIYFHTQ
Put plainly: Androgen receptor degradation assay using Western blot analysis. The format is cell-based. Conditions: LNCaP·FGC cells, concentration needed for 50% AR degradation, serial dilutions. The method, then:
LNCaP·FGC cells (Cat. 60088, Bioresource Collection and Research Center, 15 HsinChu City, Taiwan R.O.C.) grown in RPMI 1640 (Cat. 31800022, Thermo Fisher Scientific, Waltham, Massachusetts, United States) medium supplemented with 10% FBS (Cat. 10437028, Thermo Fisher Scientific, Waltham, Massachusetts, United States), 10 mM HEPES (Cat. 15630080, Thermo Fisher Scientific, Waltham, Massachusetts, United States) and 1 mM sodium pyruvate (Cat. 11360070, Thermo 20 Fisher Scientific, Waltham, Massachusetts, United States) were seeded at 2×10^5 cells per well in 24-well tissue culture plates. […] After the treatment, the cells were harvested, washed by PBS, and lysed with RIPA lysis and extraction buffer (Cat. 25 89900, Thermo Fisher Scientific, Waltham, Massachusetts, United States) supplemented with Halt Protease Inhibitor Cocktail (Cat. 78430, Thermo Fisher Scientific, Waltham, Massachusetts, United States) to collect protein samples. Cells not treated with any of the above-mentioned compounds are used as a negative control.
The protein samples were separated by polyacrylamide gel electrophoresis, and then transferred to a piece of Immuno-Blot PVDF membrane (Cat. 1620177, Bio-Rad Laboratories, Hercules, California, United States). The presence of androgen receptor in the protein samples was detected by standard Western blotting procedure using an anti-AR antibody (1:2000 dilution) (Cat. 5153, Cell Signaling Technology Inc., Danvers, Massachusetts, United States) and a goat anti-rabbit HRP-conjugated secondary antibody (1:5000 dilution) (C04003, Croyez Bioscience Co., Ltd., Taipei City, Taiwan R.O.C.). The internal loading control GAPDH was detected using a mouse monoclonal antibody (1:5000) (GTX627408, GeneTex International Corp., HsinChu City, Taiwan R.O.C.) and a goat anti-mouse HRP-conjugated secondary antibody (1:5000 dilution) (C04001, Croyez Bioscience Co., Ltd., Taipei City, Taiwan R.O.C.). Chemiluminescence signals were developed using Clarity Western ECL substrate (Cat. 1705061, Bio-Rad Laboratories, Hercules, California, United States) and detected with digital imager iBright FL1500 (Invitrogen Corp., Carlsbad, California, United States).
Compounds 1-16 were selected and serial diluted (1Ox) with RPMI medium for treating LNCaP·FGC cells. A calibration curve was determined by the serial diluted samples for each compound, and the concentration needed for 50% AR degradation (AR DC50) for each compound was calculated. “Cpd. ID” indicates the compound ID number in Table 1.
Background: In western blotting, separated proteins are transferred to a membrane and probed.

The DC50 is the concentration giving 50% degradation. Read a high DC50 as a less potent degrader.

In turn, `Cn1c2c(c3ccc(N4CCN(CC5CN(c6ccc(-c7ccc8c(c7)C(C)(C)C(=O)N8c7ccc(C#N)c(Cl)c7)c(F)n6)C5)CC4)cc31)C(=O)N(C1CCC(=O)NC1=O)C2=O` (stereo not shown) [Compound 1] had a DC50 of 200 to 1000 nM.

Compound `Cn1c2c(c3ccc(OC4CCN(CC5CN(c6ccc(-c7ccc8c(c7)C(C)(C)C(=O)N8c7ccc(C#N)c(Cl)c7)c(F)n6)C5)CC4)cc31)C(=O)N(C1CCC(=O)NC1=O)C2=O` (stereo not shown) [Compound 2] returned a DC50 not below 1000 nM.

For `CCn1c2c(c3ccc(C4CCN(CC5CN(c6ccc(-c7ccc8c(c7)C(C)(C)C(=O)N8c7ccc(C#N)c(Cl)c7)c(F)n6)C5)CC4)cc31)C(=O)N(C1CCC(=O)NC1=O)C2=O` (stereo not shown) [Compound 3], the DC50 lay within 200 to 1000 nM.

As for `CCn1c2c(c3ccc(OCCCN4CCN(c5ccc(-c6ccc7c(c6)C(C)(C)C(=O)N7c6ccc(C#N)c(Cl)c6)c(F)n5)CC4)cc31)C(=O)N(C1CCC(=O)NC1=O)C2=O` (stereo not shown) [Compound 4], the DC50 lay in the range of 200 to 1000 nM.

`Cn1c2c(c3ccc(N4CCN(CC5CCN(c6ccc(-c7ccc8c(c7)C(C)(C)C(=O)N8c7ccc(C#N)c(Cl)c7)c(F)n6)CC5)CC4)cc31)C(=O)N(C1CCC(=O)NC1=O)C2=O` (stereo not shown) [Compound 5] displayed a DC50 not below 1000 nM.

In turn, `Cn1c2c(c3ccc(C4CCN(CC5CCN(c6ccc(-c7ccc8c(c7)C(C)(C)C(=O)N8c7ccc(C#N)c(Cl)c7)c(F)n6)CC5)CC4)cc31)C(=O)N(C1CCC(=O)NC1=O)C2=O` (stereo not shown) [Compound 8] displayed a DC50 of 200 to 1000 nM.

The compound `CCn1c2c(c3ccc(N4CCN(CC5CCN(c6ccc(-c7ccc8c(c7)C(C)(C)C(=O)N8c7ccc(C#N)c(Cl)c7)c(F)n6)CC5)CC4)cc31)C(=O)N(C1CCC(=O)NC1=O)C2=O` (stereo not shown) [Compound 9] showed a DC50 of 200 to 1000 nM.

For the compound `Cn1c2c(c3ccc(N4CCN(CC5CCN(c6ccc(-c7ccc8c(c7)C(C)(C)C(=O)N8c7ccc(C#N)c(Cl)c7)nn6)CC5)CC4)cc31)C(=O)N(C1CCC(=O)NC1=O)C2=O` (stereo not shown) [Compound 11], the DC50 was not below 1000 nM.

The compound `CCn1c2c(c3ccc(N4CCN(CC5CN(c6ccc(-c7ccc8c(c7)C(C)(C)C(=O)N8c7ccc(C#N)c(Cl)c7)c(F)n6)C5)CC4)cc31)C(=O)N(C1CCC(=O)NC1=O)C2=O` (stereo not shown) [Compound 12] gave a DC50 of less than 200 nM.

As for `CCn1c2c(c3ccc(OCCN4CCN(c5ccc(-c6ccc7c(c6)C(C)(C)C(=O)N7c6ccc(C#N)c(Cl)c6)c(F)n5)CC4)cc31)C(=O)N(C1CCC(=O)NC1=O)C2=O` (stereo not shown) [Compound 15], the DC50 fell in the range of 200 to 1000 nM.
